Consider four molecules from patent US20120269762A1, “CAUSAL THERAPY OF DISEASES OR CONDITIONS ASSOCIATED WITH CNS OR PNS DEMYELINATION” (UNIVERSITY COLLEGE DUBLIN, NATIONAL UNIVERSITY OF IRELAND, …, priority 2009, published 2012).

Series [1] relates to C57BL/6 mice on cuprizone diet. In words: Cuprizone animal model of demyelination (luxol fast blue myelin staining, corpus callosum). In kind it is in vivo. To be noted: 30 mg/kg/day i.p. from 5 days before return to normal diet; 1 day time-point after 6 weeks cuprizone (0.2% wt/wt) diet. The protocol:
Demyelination was induced by feeding 12-14 week old C57B1/6 mice a diet containing 0.2% cuprizone (bis-cyclohexanone oxaldihydrazone) mixed into food pellets. This diet was maintained ad libitum for 6 weeks before returning animals to normal chow (T=0) in order to study remyelination. Control animals received control chow throughout the study. Commencing from 5 days before the return to control chow (T=−5 days), animals received daily intra-peritoneal injections of 30 mg/kg nefiracetam or vehicle only until the end of the study. At different time points, (T=1 day, T=3 days, T=7 days) animals were sacrificed, brains were snap frozen in Optimal Cutting Temperature (OTC) Compound and stored. Coronal frozen sections, 20 μm thick, were cut using a cryostat at approximately −1.8 mm from bregma. Sections were fixed in 70% ethanol, defatted in 50% chloroform/50% ethanol, rehydrated, and then myelin was stained with luxol fast blue. The degree of myelination in the corpus callosum was assessed based on the intensity of the luxol fast blue staining

In series [2] the test system is organotypic cultures of rat hippocampus. In words: LPC-induced demyelination in hippocampal organotypic slice culture (MBP immunofluorescence). In kind it is cell-based, Wistar rats. The conditions noted are these: 10 μm drug, 24 h post-LPC treatment (250 μg/ml LPC for 18 hours); compared to control. The protocol:
Slices were maintained in normal organotypic medium for 10 days, at which point demyelination was induced by exposing the cultures to 250 μg/ml lysophosphatidylcholine (LPC) in the medium for 18 hours. After the LPC exposure, slices were returned to LPC free medium containing either 10 μm nefiracetam, 10 μm piracetam, 10 μm levetiracetam, 10 μm aniracetam, or no drug. […] Protoc. […] Labelled MBP in the cultures was imaged by confocal microscopy, and the degree of myelination was compared to time matched cultures that had not undergone LPC exposure.

The conditions of series [3]: clinical studies, oral administration; cited from earlier work.
The subject of series [4] is Lewis rats susceptible to develop experimental autoimmune encephalomyelitis (EAE). In words: EAE animal model of multiple Sclerosis (clinical score). In kind it is in vivo. The conditions noted are these: versus saline-treated controls, n=5.

`Cc1cccc(C)c1NC(=O)CN1CCCC1=O` [Nefiracetam, N-(2,6-dimethylphenyl)-2-(2-oxo-1-pyrrolidinyl)acetamide]: the “myelin levels (myelin density) in the corpus callosum” value in series [1] is reported as “completely restored myelin levels to normal”. For the same molecule, in series [2], the “MBP expression (percent of field of view positive for MBP)” value is “restored MBP expression to control levels or above”. Also, the tolerability in humans entry in series [3] is reported as “well tolerated”. Further, the “clinical score (magnitude and timing of clinical symptoms)” value is “No significant differences were seen” in series [4] (increasing doses (9, 15 and 30 mg/kg) i.p. daily from onset of clinical symptoms); “No significant difference was seen” in series [4] (treated from day of inoculation with MBP).
As to `NC(=O)CN1CCCC1=O` [piracetam], the “MBP expression (percent of field of view positive for MBP)” value in series [2] is reported as “restored MBP expression to control levels or above”.
The same measure, in the same setting: the result for `CC[C@H](C(N)=O)N1CCCC1=O` [levetiracetam] reads “restored MBP expression to control levels or above”; that for `COc1ccc(C(=O)N2CCCC2=O)cc1` [aniracetam], “restored MBP expression to control levels or above”.
